{"source": "patent US20090030071A1", "about": "“Treatment of Cardiovascular Disease in Mexican Americans Using Nebivolol” (priority 2007, published 2009)", "key": {"[1]": {"test_system": "arteries isolated from control Wistar-Kyoto (WKY) rats", "assay": "NO release from arteries isolated from control Wistar-Kyoto (WKY) rats", "parameters": "species or system rat", "settings": "for amount of NO released: WKY rat arteries, concentration of 10 μM (maximum NO release)", "experimental": "In one aspect of the present invention, a composition comprising nebivolol is administered to a person of Hispanic descent, particularly a Mexican American, wherein nebivolol is administered in a mixture containing a greater proportion (enantiomeric excess) of the l-steroisomer of nebivolol. In another embodiment, all or substantially all of the mixture comprises the l-stereoisomer of nebivolol. NO release levels from arteries isolated from control Wistar-Kyoto (WKY) rats following treatment with nebivolol racemate, l-nebivolol or d-nebivolol vary. […] At this concentration, the amount of NO released was 340±30 nM, 284±24 nM, and 180±21 nM for l-nebivolol, nebivolol racemate and d-nebivolol, respectively. These findings confirm that nebivolol can stimulate NO release in the intact artery in a stereoselective manner. See also, Xhonneux R, Wouters L, Reneman R S, et al. The l-enantiomer of nebivolol potentiates the blood pressure lowering effect of the d-enantiomer. Eur. J. Pharmacol. 1990; 181:261-265."}, "[2]": {"test_system": "human umbilical vein endothelial cells", "assay": "CaI-stimulated endothelial NO release in HUVECs from MA and NHW donors after 24 h pre-treatment (nanosensor array)", "type": "cell-based", "settings": "for enhancement of NO release: pretreatment 24 hr, 1.0 μM, CaI 1.0 μM stimulus", "experimental": "(§1) Endothelial function in cells from normotensive, age-matched Mexican American (MA) and Non-Hispanic White (NHW) donors, as well as the effects of treatment with nebivolol was also determined. Endothelial NO and peroxynitrite (ONOO^−) release was measured simultaneously in human umbilical vein endothelial cells from age-matched MA and NHW donors using a nanosensor array. The effects of nebivolol on NO and ONOO^− production was evaluated following pre-treatment (24 h) using calcium ionophore (CaI) as a receptor-independent stimulus. Levels of eNOS were measured by Western blot analysis. Drug-membrane interactions were determined by small angle x-ray diffraction analysis."}, "[3]": {"test_system": "human umbilical vein endothelial cells (HUVECs)", "assay": "Endothelial-dependent NO release from HUVECs of non-Hispanic white and Mexican American donors, measured with electrochemical nanosensors", "type": "cell-based", "settings": "for increase in NO release (NO bioavailability): 24 h pretreatment with nebivolol at 1.0 μM (FIG. 4)", "experimental": "The effects of nebivolol and atenolol on endothelial-dependent NO release were tested in human umbilical vein endothelial cells (HUVECs). Human umbilical vein endothelial cells were isolated into primary cultures from non-Hispanic white and Mexican American female donors by Clonetics (San Diego, Calif.) and purchased as proliferating cells. All cell culture donors were healthy, with no pregnancy or prenatal complications. None of the donors took any drugs regularly and all were nonsmokers and consumed regular caloric/content diet. The identification of race was defined by self-report. The cultured cells were incubated in 95% air/5% CO2 at 37° C. and passage by an enzymatic (trypsin) procedure. […] Before the experiments, the cells (from second or third passage) were rinsed twice with Tyrode-HEPES buffer with 1.8 mmol/L CaCl2. Drugs were obtained from Mylan Laboratories (Morgantown, W. Va.). NO measurement was carried out with electrochemical nanosensors The design was based on previously developed and well-characterized chemically modified carbon-fiber technology ([…], Nature 358, 676-678, 1992; […]. Anal. Chem. 69, 454-462, 1997). Each of the nanosensors was made by depositing a sensing material on the tip of a carbon fiber (length 4-5 μm, diameter 0.2-0.5 μm). The fibers were sealed with nonconductive epoxy and electrically connected to copper wires with conductive silver epoxy. […] The NO nanosensors (diameter 1-2 μm) with a platinum wire (0.1 mm) counter electrode and saturated calomel reference electrode (SCE) were applied. Differential pulse voltammetry (DPV) and amperometry were performed with a computer-based Gamry VFP600 multichannel potentiostat. DPV was used to measure the basal NO concentrations, and amperometry was used to measure changes in NO concentrations from its basal level with time. The DPV current at the peak potential characteristic for NO oxidation (0.65 V) […] was directly proportional to the local concentrations of these compounds in the immediate vicinity of the sensor. Linear calibration curves (current vs. concentration) were constructed for each sensor from 10 nmol/L to 3 μmol/L before and after measurements with aliquots of NO standard solutions, respectively. The detection limit of the sensors was 10^-9 mol/L. The quantification of each analyte (concentration in nmol/L) was performed using a maximum current from amperograms and standard calibration curves. A reproducibility of measurements with nanosensors is relatively high (between 5-12%). […] The sensors were slowly raised 4±1 μm from the surface of a single endothelial cell. The HUVEC preparation is stable over the course of these experiments with the cells remaining viable in culture for >24 hours. Under non-stimulating conditions, basal levels of NO release are very low (<30 nM). […]"}, "[4]": {"test_system": "human umbilical vein endothelial cells", "assay": "CaI-stimulated peroxynitrite (ONOO−) release in HUVECs from MA and NHW donors after 24 h pre-treatment (nanosensor array)", "type": "cell-based", "settings": "for reduction of ONOO− levels: nebivolol pretreatment", "experimental": "as §1"}, "eNOS": {"test_system": "eNOS", "assay": "eNOS levels by Western blot analysis in endothelium", "type": "cell-based, human", "settings": "MA endothelium, nebivolol treatment", "experimental": "as §1"}, "aortic endothelial cells": {"test_system": "aortic endothelial cells", "assay": "STZ-induced diabetes: CaI-induced endothelial-dependent NO release from aortic endothelial cells after nebivolol treatment of animals", "type": "in vivo", "settings": "nebivolol treatment prior to sacrifice at 13 weeks, p=0.1273", "description": "FIG. 6 depicts the effects of STZ-induced diabetes on the ratio of CaI-induced NO/ONOO release from aortic endothelial cells in the absence and presence of nebivolol treatment prior to sacrifice of animals at 13 weeks. Values are reported as mean±SD. *p<0.0001 versus control and ^†p<0.001 versus STZ treatment (Student t-test). FIG. 7 depicts the effects of STZ-induced diabetes on CaI-induced endothelial-dependent NO release from aortic endothelial cells in the absence and presence of nebivolol treatment prior to sacrifice of animals at 13 weeks. Values are reported as mean±SD. *p<0.0001 versus control and ^†p<0.001 versus STZ treatment (Student t-test)."}}, "note": "Entries after “also recorded” stand apart in the source; their conditions may differ."}
{"smiles": "O[C@H](CNC[C@@H](O)[C@H]1CCc2cc(F)ccc2O1)[C@@H]1CCc2cc(F)ccc2O1", "note": "[d-nebivolol]", "values": [{"measurement": "ability to stimulate NO release (order of activity)", "setting": "[1]; WKY arterial vessels", "result": "weakest stimulant of NO release"}, {"measurement": "amount of NO released", "setting": "[1]", "result": "180 ± 21", "unit": "nM"}]}
{"smiles": "CC(C)NCC(O)COc1ccc(CC(N)=O)cc1", "note": "(stereo not drawn) [atenolol]", "values": [{"measurement": "effects on NO release, ONOO− levels, NO/ONOO− ratio and eNOS levels", "setting": "[2]; MA and NHW HUVECs", "result": "not observed"}, {"measurement": "stimulation of NO release", "setting": "[3]; either racial group, identical conditions (24 h pre-incubation at 1.0 or 5.0 μM, FIGS. 4 and 5)", "result": "failed to stimulate any significant amount of NO release; also recorded: did not have any effect"}]}
{"smiles": "OC(CNCC(O)C1CCc2cc(F)ccc2O1)C1CCc2cc(F)ccc2O1", "note": "(racemic) [nebivolol, α, α′-[iminobismethylene]bis[6-fluoro-3,4-dihydro-2H-1-benzopyran-2-methanol]]", "values": [{"measurement": "ONOO− level after treatment", "setting": "[4]; MA endothelium, from 746±12 nM without treatment", "result": "195 ± 10", "unit": "nM"}, {"measurement": "reduction of ONOO− levels", "setting": "[4]; MA endothelium", "result": 75, "unit": "%"}, {"measurement": "ONOO− level after treatment", "setting": "[4]; NHW endothelium, from 416±7 nM without treatment", "result": "191 ± 13", "unit": "nM"}, {"measurement": "reduction of ONOO− levels", "setting": "[4]; NHW endothelium", "result": 50, "unit": "%"}, {"measurement": "increase of eNOS levels", "setting": "eNOS", "result": "two-fold"}, {"measurement": "amount of NO released", "setting": "[1]", "result": "284 ± 24", "unit": "nM"}, {"measurement": "enhancement of NO release", "setting": "[2]; MA cells", "result": 57, "unit": "%"}, {"measurement": "increase of ratio of NO to ONOO− (indicator of eNOS coupling)", "setting": "[2]; MA, following nebivolol treatment", "result": "more than 5 fold"}, {"measurement": "enhancement of NO release", "setting": "[2]; NHW cells", "result": 20, "unit": "%"}, {"measurement": "increase in NO release (NO bioavailability)", "setting": "[3]; HUVECs from Mexican American donors", "result": "138 ± 2", "unit": "nM"}, {"measurement": "increase in NO release (NO bioavailability)", "setting": "[3]; HUVECs from white donors", "result": "68 ± 3", "unit": "nM"}, {"measurement": "increase in NO bioavailability, Mexican American samples relative to white donors", "setting": "[3]; nebivolol at 1.0 μM, 24 h pretreatment", "result": "two-fold greater"}, {"measurement": "CaI-induced endothelial-dependent NO release versus non-diabetic control animals", "setting": "aortic endothelial cells", "result": "not a statistically significant difference as compared to non-diabetic control animals"}]}
{"smiles": "O[C@@H](CNC[C@H](O)[C@H]1CCc2cc(F)ccc2O1)[C@@H]1CCc2cc(F)ccc2O1", "note": "[l-nebivolol]", "values": [{"measurement": "amount of NO released", "setting": "[1]", "result": "340 ± 30", "unit": "nM"}]}
